According to patent US6175001A, “Functionalized pyrimidine nucleosides and nucleotides and DNA's incorporating same” (The Scripps Research Institute, priority 1998, dated 2001):

Legend:
[1] = test system: thermostable DNA polymerase; conditions: Latham et al., Nucleic Acids Res. 1994; cited from earlier work
rTh polymerase = target: T1, rTh polymerase (Thermus thermophilus, UniProt P52028); assay: PCR assay with modified dUTP in place of dTTP, rTh polymerase; format: biochemical; conditions: analog in place of dTTP, 519 base pair product
T1 construct: purchased
Source text: (§1) Commercially available thermostable DNA polymerases from […] organisms were studied; Taq from Thermus aquaticus, Vent from Thermococcus litoralis, Pfu from Pyrococcus furiosus, and rTh from Thermus thermophilus. […] Homogeneous incorporation of these derivatives in PCR is not possible due to chain termination, see 11c for discussion of derivatives in PCR: a) M. Shimkus, J. Levy, T. Herman, Proc. Natl. Acad. Sci. U.S.A. 1985, 82, 2593-7; b) B. L. Iverson, P. B. Dervan, J Am. Chem. Soc. 1987, 109, 1241-3. and ref. 10; c) H. Yu, J. Chao, D. Patek, R. Mujumdar, A. S. Waggoner, Nucleic Acids Res. 1994, 22, 3226-32. Successful PCR with this template requires incorporation of 246 modified bases including a single stretch of 8 contiguous thymidines.
(§2) Compound 3 was derivatized with three different N-hydroxysuccinimide esters to prepare Compounds 4a-c (Scheme 2 FIG. 3). […] To test this structure-activity relationship, 4e-4g maintaining the a,b-unsaturated linker arm common to 4a, were also prepared (Scheme 2, FIG. 3). […] Compound 4g, with a free amino group, was used as a template for the synthesis of Compounds 4h and 4i.

[2] = test system: thermostable DNA polymerases (Taq, Vent, Pfu, rTh); assay: PCR assays with modified dUTP in place of dTTP, panel of thermostable DNA polymerases; format: biochemical; conditions: for substrate for thermostable DNA polymerases in PCR: typical PCR conditions, analog in place of dTTP, all polymerases tested (Taq, Vent, Pfu, rTh), 519 base pair product; for incorporation of modified base in PCR under varied conditions: variation of Mg+2 (15 to 30 mM) and analog concentrations
Source text: as §1, §2

[3] = target: T2, Superscript II reverse transcriptase (Moloney murine leukemia virus, UniProt P03355, D1183G/D1242N/E1221Q); assay: Reverse transcriptase template-directed extension assay; format: biochemical; conditions: 0.4 mM analog; 0.2 mM dATP, dCTP, dGTP; 37 C
T2 construct: Superscript II reverse transcriptase; purchased Gibco/BRL
Description: Reverse transcriptases may also be utilized in conjunction with PCR in in vitro selection schemes of DNA enzymes. […] The specificity of this reverse transcriptase is broader and not predictive of the structural requirements of the thermostable polymerases.
Reverse transcriptase assays: Template-directed extension was performed by addition of 10 pmol template DNA 5'-GCTAAAAAAGCTGCTAAAAAGCTGCTAAAAGCTGCTAAAGCTAAGCTAGCTCCCTTTAGTGAGGGTTAATTGC-3' (SEQ ID NO. 1) to 10 pmol primer DNA 5'-GCAATTAACCCTCACTAAAGGG-3' (SEQ ID NO 2) followed by Superscript II reverse transcriptase (Gibco, 200 units.(1^-1). The reaction (25 (I) contained 0.2 mM of dATP, dCTP, dGTP and 0.4 mM analog. Trace quantities of ((-^32 P(-dATP was included to allow the extension efficiency to be monitored. All components except reverse transcriptase were combined, incubated at 90° C. and cooled to 37° C. to anneal the primer. The enzyme (600 units) was added and the reaction mixture was incubated at 37 (C. The DNA was precipitated in ethanol and then dissolved in gel-loading buffer containing urea and heated for 3 min at 90° C. After separation on a 10% denaturing acrylarnide gel, the samples were further analyzed with a Phosphorimager.

T1 sequence (P52028 whole entry): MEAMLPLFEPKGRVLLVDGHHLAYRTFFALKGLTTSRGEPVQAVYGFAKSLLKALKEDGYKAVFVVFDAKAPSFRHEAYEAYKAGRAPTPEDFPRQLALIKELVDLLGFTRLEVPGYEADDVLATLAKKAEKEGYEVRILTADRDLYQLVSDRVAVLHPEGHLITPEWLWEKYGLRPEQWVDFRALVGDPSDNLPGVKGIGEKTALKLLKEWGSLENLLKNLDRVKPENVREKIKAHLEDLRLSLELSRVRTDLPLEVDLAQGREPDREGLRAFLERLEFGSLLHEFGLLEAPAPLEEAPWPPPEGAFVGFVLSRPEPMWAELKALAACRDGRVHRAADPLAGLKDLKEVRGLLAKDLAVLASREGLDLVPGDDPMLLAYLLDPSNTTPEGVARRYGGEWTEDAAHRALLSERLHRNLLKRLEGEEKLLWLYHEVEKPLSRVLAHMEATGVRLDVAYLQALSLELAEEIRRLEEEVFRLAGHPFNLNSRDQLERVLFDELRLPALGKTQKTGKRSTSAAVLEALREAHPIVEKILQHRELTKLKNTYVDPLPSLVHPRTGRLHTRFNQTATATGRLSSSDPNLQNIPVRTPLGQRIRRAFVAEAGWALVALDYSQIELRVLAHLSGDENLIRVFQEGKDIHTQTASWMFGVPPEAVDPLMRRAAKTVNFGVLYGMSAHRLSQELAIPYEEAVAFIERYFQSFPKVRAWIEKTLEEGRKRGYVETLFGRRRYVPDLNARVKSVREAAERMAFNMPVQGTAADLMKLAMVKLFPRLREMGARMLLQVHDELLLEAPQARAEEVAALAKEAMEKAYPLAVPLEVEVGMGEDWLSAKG

In the case of `CCCC#Cc1cn([C@H]2C[C@H](O)[C@@H](COP(=O)(O)OP(=O)(O)OP(=O)(O)O)O2)c(=O)[nH]c1=O` [5-(1-pentynyl)-2' deoxyuridine triphosphate], the “substrate for a thermostable DNA polymerase” value [1] is given as “good substrate”.
For `NCC=Cc1cn([C@H]2C[C@H](O)[C@@H](COP(=O)(O)OP(=O)(O)OP(=O)(O)O)O2)c(=O)[nH]c1=O` [Compound 3, C-5(3-aminopropenyl)-2'-deoxvuridinetriphosphate], the “incorporation / substrate in PCR with rTh polymerase (only polymerase of the panel that accepts it)” value (rTh polymerase) was “incorporation into the 519 base pair product only with rTh polymerase”, the “criteria for in vitro selection: substrate for thermostable polymerases and product serves as template for multiple cycles of PCR amplification” value [2] was “criteria were met” and the “substrate for thermostable DNA polymerases in PCR” value [2] was “acted as a substrate”.
For `O=C(/C=C/c1c[nH]cn1)NCC=Cc1cn([C@H]2C[C@H](O)[C@@H](COP(=O)(O)OP(=O)(O)OP(=O)(O)O)O2)c(=O)[nH]c1=O` [Compound 4a], the “criteria for in vitro selection: substrate for thermostable polymerases and product serves as template for multiple cycles of PCR amplification” value [2] was “criteria were met” and the “substrate for thermostable DNA polymerases in PCR” value [2] was “excellent substrate for all the polymerases tested”.
For `O=C(O)c1ccc(C(=O)NC/C=C/c2cn([C@H]3C[C@H](O)[C@@H](COP(=O)(O)OP(=O)(O)OP(=O)(O)O)O3)c(=O)[nH]c2=O)cc1` [Compound 4b], the “incorporation of modified base in PCR under varied conditions” value [2] was “failed to define conditions that allowed for incorporation”.
In the case of `O=C(O)c1ccccc1-c1ccccc1C(=O)NCC=Cc1cn([C@H]2C[C@H](O)[C@@H](COP(=O)(O)OP(=O)(O)OP(=O)(O)O)O2)c(=O)[nH]c1=O` [Compound 4c], the “substrate of Superscript II reverse transcriptase in template directed synthesis” value [3] is reported as “all but 4c and 4h were substrates” and the “incorporation of modified base in PCR under varied conditions” value [2] is reported as “failed to define conditions that allowed for incorporation”.
With `O=C(CCc1c[nH]cn1)NC/C=C/c1cn([C@H]2C[C@H](O)[C@@H](COP(=O)(O)OP(=O)(O)OP(=O)(O)O)O2)c(=O)[nH]c1=O` [Compound 4d] the “substrate for thermostable DNA polymerases in PCR” value [2] was “No conditions could be defined with any of the polymerases that allowed for PCR”.
With `NCc1cccc(/C=C/C(=O)NC/C=C/c2cn([C@H]3C[C@H](O)[C@@H](COP(=O)(O)OP(=O)(O)OP(=O)(O)O)O3)c(=O)[nH]c2=O)c1` [Compound 4g] the “substrate for thermostable DNA polymerases in PCR” value [2] was “robust substrate for PCR as compared to 3”.
For `O=C(O)CCCC(=O)NCc1cccc(/C=C/C(=O)NC/C=C/c2cn([C@H]3C[C@H](O)[C@@H](COP(=O)(O)OP(=O)(O)OP(=O)(O)O)O3)c(=O)[nH]c2=O)c1` [Compound 4h], the “substrate of Superscript II reverse transcriptase in template directed synthesis” value [3] was “all but 4c and 4h were substrates” and the “substrate for thermostable DNA polymerases in PCR” value [2] was “good substrate for all thermostable polymerases tested”.
With `CC(=O)N[C@@H](Cc1c[nH]cn1)C(=O)NCc1cccc(/C=C/C(=O)NC/C=C/c2cn([C@H]3C[C@H](O)[C@@H](COP(=O)(O)OP(=O)(O)OP(=O)(O)O)O3)c(=O)[nH]c2=O)c1` [Compound 4i] the “incorporation / substrate in PCR with rTh polymerase (only polymerase of the panel that accepts it)” value (rTh polymerase) was “substrate only for rTh polymerase”.
